A short description of data set [1]: Protein binding rate in plasma (equilibrium dialysis), human. It counts as in vitro ADME. The following applies: 4 h dialysis. The method, then:
(§1) The protein binding rates of the compound disclosed herein in plasma of human, CD-1 mice and SD rats were determined. 796 μL of blank plasma was taken from human, CD-1 mice or SD rats, and 4 μL of test compound working solution (400 μM) or warfarin working solution (400 μM) was added to achieve a final concentration of 2 μM of both the test compound and the warfarin in the plasma sample. The samples were mixed well. The final concentration of organic phase DMSO was 0.5%; 50 μL of test compound and warfarin plasma sample was pipetted into a sample receiving plate (in triplicate), and a corresponding volume of blank plasma or buffer was immediately added such that the final volume in each sample well was 100 μL. The volume ratio of plasma to dialysis buffer was 1:1. […] All samples were subjected to LC/MS analysis after protein precipitation, and the protein binding rates and the recovery rates were calculated by the following formulas: protein unbinding rate (%)=100× drug concentration passing through dialysis membrane/drug concentration not passing through dialysate; protein binding rate (%)=100−protein unbinding rate (%); recovery rate (%)=100×(drug concentration passing through dialysis membrane+drug concentration not passing through dialysate)/total drug concentration before dialysis.
Background: In equilibrium dialysis only unbound substance equilibrates across the membrane.

A short description of data set [2]: Protein binding rate in plasma (equilibrium dialysis), SD rat. The following applies: 4 h dialysis. In kind it is in vitro ADME. As to the method: as §1

The record followed here is patent US20230331739A1, “INDOLO HEPTAMYL OXIME ANALOG CRYSTAL AS PARP INHIBITOR AND METHOD FOR PREPARING SAME” (CHIA TAI TIANQING PHARMACEUTICAL GROUP CO., LTD., priority 2020, published 2023).

Broadly, the fraction unbound is free concentration divided by total concentration.

Regarding `C[C@]1(c2ccc(-c3[nH]c4cc(F)cc5c4c3CONC5=O)cc2)CCCN1` [Compound 1], the fraction unbound at 4 h, 2 μM in data set [1] is 0.149; in data set [2], 0.077.
